Measurements: PMC5736782, “The Differential Absorption of a Series of P-Glycoprotein Substrates in Isolated Perfused Lungs from Mdr1a/1b Genetic Knockout Mice can be Attributed to Distinct Physico-Chemical Properties: an Insight into Predicting Transporter-Mediated, Pulmonary Specific Disposition” (Pharmaceutical Research, 2017)
Like-named read-outs stand apart in the source and are kept apart here.

How the values were obtained:
[1] = test system: P-glycoprotein (Mdr1a/Mdr1b) in isolated perfused mouse lung; assay: Isolated perfused mouse lung (IPML) airway-to-perfusate absorption, Mdr1a/1b (+/+) vs (−/−); details: for Mdr1a/1b (-/-) % Deposited Dose absorbed / Mdr1a/1b (+/+) % Deposited Dose absorbed: within 30 minutes; for Mdr1a/1b (+/+) % Deposited Dose absorbed: wild-type IPML
Procedure: The atria and the lower half of the heart were cut to allow the free flow of perfusate. The lungs were removed and suspended vertically in a custom water-jacketed glass thorax (Radleys, Essex, UK) maintained at 37°C.
Following dosing of compound into the IPML airways serial samples (250 μL) were collected for bioanalysis from the 10 mL recirculating perfusate reservoir. Each sample collected from the reservoir was replaced with an equal volume of fresh warmed, oxygenated perfusate. Upon termination of the experiment the dose solutions, apparatus washings and perfusate samples were collected for mass balance calculations enabling determination of the actual total dose delivered to the lungs.
Radioactive compounds were directly analysed by liquid scintillation counting. Volumes of 50 μL perfusate samples were mixed with 3 mL of Scintisafe 3 Liquid Scintillation Fluid (Fisher, UK) and transferred to vials for scintillation counting using a TriCarb 2900TR (Packard Bioscience, USA).
After accounting for the mass of compound removed at each sample point, plots of the cumulative ‘%deposited dose absorbed’ versus ‘time’ were generated and subject to nonlinear regression analysis according to a first-order absorption one-compartment accumulating model (Eq. 1) to generate estimates for the extent (F) and rate (Ka) of absorption from the IPML airways to the recirculating perfusate.
The data was also subject to standard non-compartmental analysis, specifically Area Under Curve (AUC0–30 min) of ‘%deposited dose absorbed’ versus ‘time’ (units: %Dose.min) and reflecting for the exclusively accumulating perfusate ‘compartment’ the exposure arising from the IPML absorption process alone.

mouse Bcrp = biological target: T1, mouse Bcrp (Mus musculus, UniProt Q7TMS5); assay: Gentest ABC transporter membrane ATPase assay; assay type: biochemical
T1 construct: purchased Corning (Gentest), Germany
T1 sequence (Q7TMS5 1-657): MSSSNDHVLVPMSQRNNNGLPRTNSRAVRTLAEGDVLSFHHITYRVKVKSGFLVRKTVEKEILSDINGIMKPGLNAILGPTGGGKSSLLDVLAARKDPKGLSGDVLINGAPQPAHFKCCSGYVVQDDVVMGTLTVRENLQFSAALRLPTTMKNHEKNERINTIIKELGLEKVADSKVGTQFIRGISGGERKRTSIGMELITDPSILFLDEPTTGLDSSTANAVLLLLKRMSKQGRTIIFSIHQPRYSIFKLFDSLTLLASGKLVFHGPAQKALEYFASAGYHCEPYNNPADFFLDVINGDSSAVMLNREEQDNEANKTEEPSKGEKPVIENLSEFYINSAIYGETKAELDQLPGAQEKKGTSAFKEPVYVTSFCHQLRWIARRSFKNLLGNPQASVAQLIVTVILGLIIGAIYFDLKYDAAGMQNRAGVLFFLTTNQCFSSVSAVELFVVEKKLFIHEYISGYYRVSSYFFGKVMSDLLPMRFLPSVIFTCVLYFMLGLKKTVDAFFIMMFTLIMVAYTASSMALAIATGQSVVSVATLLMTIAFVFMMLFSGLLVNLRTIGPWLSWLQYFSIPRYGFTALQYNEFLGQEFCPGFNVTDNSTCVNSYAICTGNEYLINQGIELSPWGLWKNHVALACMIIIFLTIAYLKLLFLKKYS

[2] = Immobilised artificial membrane (IAM) chromatography; assay type: physicochemical; details: extrapolated to 100% water; mean of four experiments
Procedure: IAM chromatography provided an experimental measure of substrate membrane affinity and phospholipid interaction. The IAM column (Regis Technologies Inc., Hichrom, Reading, UK; IAM.PC.DD2 10 cm x 4.6 mm ID column) was run under isocratic eluting conditions with the retention of all compounds determined under three mobile phase conditions: 10%, 20% and 30% acetonitrile in water, and from which the theoretical retention time in 100% water was calculated by linear regression. LogK^IAM values were calculated according to Eq. 2:2 LogK^IAM=LogTr−T0/T0
where Tr and T0 are respectively the retention times of the substrate in 100% water and of the unretained compound, i.e. eluting within the solvent front of 75 s in all experiments.

[3] = Multi-lamellar liposome vesicle (MLV) partitioning; assay type: physicochemical; details: (C0−CS)/C0, 1 μg/mL, 4 h, 37°C, PBS pH 7.4
Procedure: MLVs were formed as previously described ([20]). Briefly, solutions of 8 mg phosphatidylcholine and 2 mg phosphatidylglycerol in 10 mL chloroform were completely dried to a lipid film (rotation under vacuum).
These preparations were then incubated at 37°C for 4 h under shaking conditions to allow equilibration of compound between the lipid and aqueous fractions. The MLVs were then pelleted and 100 μL of supernatant removed for analysis by radiometric or LC-MS/MS methods as described above. Partitioning into the MLVs was determined according to Eq. 3:3 MLVpartitioning=C0−CS/C0
where C0 is the initial compound concentration (1 μg/mL) and CS is the compound concentration present in the aqueous supernatant at the end of 4 h incubation.

P-gp (Mdr1a/1b) = assay: Pilot in-vivo intra-nasal instillation, lung clearance; details: mouse, in vivo
Procedure: Separate mice were sacrificed (n=3) at each time-point post-instillation (5 min, 1 hr, 3 hr, 5 hr, 7 hr and 12 hr). Lung tissue was homogenised and subjected to solute extraction approaches priod to LC-MS/MS quantitation.

P-gp [4] = details: IPRL; cited from earlier work
P-gp [5] = test system: P-gp; design: method as in PMID 23670704; details: IPRL and IPML models; cited from earlier work
human MDR1 = human MDR1 (Homo sapiens, UniProt P08183); assay: Gentest ABC transporter membrane ATPase assay; details: ATPase, 0–300 μM, 30 min, 37°C
human MDR1, sequence (P08183 whole entry): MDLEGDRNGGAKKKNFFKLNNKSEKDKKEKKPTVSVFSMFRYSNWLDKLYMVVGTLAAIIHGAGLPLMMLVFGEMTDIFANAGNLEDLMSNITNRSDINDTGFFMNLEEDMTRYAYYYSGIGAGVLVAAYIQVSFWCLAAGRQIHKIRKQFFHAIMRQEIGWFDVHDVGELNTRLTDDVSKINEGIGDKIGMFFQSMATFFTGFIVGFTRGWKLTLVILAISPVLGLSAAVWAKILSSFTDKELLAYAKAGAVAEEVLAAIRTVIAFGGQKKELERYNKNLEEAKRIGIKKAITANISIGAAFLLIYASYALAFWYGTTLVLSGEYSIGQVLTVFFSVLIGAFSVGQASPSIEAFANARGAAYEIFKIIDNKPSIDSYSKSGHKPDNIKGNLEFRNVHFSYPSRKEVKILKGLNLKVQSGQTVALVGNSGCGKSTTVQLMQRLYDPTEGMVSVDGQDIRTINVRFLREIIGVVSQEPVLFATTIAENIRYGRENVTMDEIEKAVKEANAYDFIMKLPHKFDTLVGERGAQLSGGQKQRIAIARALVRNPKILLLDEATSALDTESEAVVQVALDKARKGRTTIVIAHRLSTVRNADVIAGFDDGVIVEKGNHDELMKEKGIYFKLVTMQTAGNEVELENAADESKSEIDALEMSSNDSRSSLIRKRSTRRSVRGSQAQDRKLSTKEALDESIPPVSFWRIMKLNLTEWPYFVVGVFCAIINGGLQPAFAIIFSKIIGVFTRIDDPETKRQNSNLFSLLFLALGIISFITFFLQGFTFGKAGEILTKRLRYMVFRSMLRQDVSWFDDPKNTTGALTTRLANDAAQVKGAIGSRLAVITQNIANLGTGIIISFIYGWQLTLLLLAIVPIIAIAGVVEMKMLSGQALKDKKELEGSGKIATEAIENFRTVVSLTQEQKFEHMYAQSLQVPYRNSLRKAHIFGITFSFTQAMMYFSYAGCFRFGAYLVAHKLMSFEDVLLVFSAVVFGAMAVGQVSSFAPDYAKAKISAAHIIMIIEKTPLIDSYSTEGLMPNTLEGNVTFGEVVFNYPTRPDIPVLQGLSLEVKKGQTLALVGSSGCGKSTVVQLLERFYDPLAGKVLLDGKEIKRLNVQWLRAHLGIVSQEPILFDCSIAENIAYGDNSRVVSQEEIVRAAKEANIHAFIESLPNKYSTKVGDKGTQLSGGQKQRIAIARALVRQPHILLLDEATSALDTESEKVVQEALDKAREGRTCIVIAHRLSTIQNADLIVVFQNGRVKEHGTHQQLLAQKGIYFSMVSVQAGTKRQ

mouse Mdr1a = mouse Mdr1a (Mus musculus, UniProt P21447); assay: Gentest ABC transporter membrane ATPase assay; details: 0–300 μM, 30 min, 37°C
mouse Mdr1a, sequence (P21447 whole entry): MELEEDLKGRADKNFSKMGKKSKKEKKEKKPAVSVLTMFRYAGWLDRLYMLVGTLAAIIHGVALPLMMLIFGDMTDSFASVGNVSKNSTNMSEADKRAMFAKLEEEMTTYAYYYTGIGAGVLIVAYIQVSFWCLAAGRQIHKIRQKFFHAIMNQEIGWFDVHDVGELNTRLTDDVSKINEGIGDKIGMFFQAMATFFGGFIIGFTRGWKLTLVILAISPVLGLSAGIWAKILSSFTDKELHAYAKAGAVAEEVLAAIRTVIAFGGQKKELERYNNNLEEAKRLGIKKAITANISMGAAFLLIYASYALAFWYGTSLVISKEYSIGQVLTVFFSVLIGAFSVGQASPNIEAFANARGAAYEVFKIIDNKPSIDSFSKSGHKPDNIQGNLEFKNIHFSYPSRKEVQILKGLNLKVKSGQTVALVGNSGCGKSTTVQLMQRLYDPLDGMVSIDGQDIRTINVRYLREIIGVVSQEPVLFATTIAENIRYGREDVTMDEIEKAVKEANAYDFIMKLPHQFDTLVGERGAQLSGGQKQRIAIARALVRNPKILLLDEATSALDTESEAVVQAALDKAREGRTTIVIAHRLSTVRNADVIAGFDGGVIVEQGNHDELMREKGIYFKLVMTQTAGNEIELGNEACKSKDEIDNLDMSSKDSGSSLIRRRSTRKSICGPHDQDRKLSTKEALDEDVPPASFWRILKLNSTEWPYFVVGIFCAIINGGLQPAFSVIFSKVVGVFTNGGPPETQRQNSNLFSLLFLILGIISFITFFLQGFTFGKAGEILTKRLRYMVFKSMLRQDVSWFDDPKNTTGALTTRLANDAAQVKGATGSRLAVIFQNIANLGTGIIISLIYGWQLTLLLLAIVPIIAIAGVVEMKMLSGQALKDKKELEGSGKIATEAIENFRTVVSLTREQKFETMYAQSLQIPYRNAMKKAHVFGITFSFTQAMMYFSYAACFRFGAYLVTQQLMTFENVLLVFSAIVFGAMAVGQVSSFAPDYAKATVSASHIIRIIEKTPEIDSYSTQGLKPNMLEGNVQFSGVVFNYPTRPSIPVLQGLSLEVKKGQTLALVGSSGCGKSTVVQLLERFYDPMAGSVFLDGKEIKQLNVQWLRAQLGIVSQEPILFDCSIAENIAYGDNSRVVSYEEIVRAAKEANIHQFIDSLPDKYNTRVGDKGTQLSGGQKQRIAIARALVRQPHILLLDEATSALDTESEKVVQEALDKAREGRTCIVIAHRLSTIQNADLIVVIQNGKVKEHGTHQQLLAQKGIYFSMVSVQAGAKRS

mouse Mdr1b = mouse Mdr1b (Mus musculus, UniProt P06795); assay: Gentest ABC transporter membrane ATPase assay; details: 0–300 μM, 30 min, 37°C
mouse Mdr1b, sequence (P06795 whole entry): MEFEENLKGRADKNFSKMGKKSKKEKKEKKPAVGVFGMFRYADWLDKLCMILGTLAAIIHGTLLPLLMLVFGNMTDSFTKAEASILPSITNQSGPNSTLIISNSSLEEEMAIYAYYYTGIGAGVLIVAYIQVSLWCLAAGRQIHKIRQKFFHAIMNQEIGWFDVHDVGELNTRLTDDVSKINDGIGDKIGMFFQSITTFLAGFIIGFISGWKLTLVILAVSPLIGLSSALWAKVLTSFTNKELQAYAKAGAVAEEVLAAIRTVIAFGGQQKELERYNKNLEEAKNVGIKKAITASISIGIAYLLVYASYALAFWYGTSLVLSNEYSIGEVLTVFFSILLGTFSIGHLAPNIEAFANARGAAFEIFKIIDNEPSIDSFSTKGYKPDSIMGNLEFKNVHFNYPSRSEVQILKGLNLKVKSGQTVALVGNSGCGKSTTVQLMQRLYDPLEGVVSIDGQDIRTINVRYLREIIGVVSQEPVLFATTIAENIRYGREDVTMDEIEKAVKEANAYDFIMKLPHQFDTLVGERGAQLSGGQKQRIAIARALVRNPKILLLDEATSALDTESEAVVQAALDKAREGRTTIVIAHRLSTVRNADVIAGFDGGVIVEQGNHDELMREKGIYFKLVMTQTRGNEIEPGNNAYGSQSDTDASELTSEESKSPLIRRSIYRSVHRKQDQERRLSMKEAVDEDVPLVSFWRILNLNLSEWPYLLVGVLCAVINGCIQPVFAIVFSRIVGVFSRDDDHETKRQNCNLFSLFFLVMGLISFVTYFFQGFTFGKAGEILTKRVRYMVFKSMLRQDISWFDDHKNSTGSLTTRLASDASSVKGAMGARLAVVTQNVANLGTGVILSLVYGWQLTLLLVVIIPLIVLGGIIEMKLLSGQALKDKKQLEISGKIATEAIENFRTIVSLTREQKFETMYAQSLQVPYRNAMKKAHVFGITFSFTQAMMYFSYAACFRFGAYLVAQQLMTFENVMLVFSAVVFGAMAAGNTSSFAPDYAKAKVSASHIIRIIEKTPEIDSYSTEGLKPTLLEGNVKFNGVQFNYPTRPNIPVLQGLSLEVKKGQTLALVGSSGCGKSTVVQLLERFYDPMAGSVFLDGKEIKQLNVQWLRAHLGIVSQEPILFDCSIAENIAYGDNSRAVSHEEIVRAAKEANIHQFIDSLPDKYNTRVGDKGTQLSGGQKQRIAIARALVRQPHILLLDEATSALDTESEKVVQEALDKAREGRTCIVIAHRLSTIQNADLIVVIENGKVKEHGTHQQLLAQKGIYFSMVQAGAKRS

[6] = test system: P-gp (Mdr1a/1b) in mouse intestinal segments; assay: Ussing chamber intestinal permeability, ileal segments Mdr1a/1b (+/+) vs (−/−)
Procedure: (§1) The bathing fluid for both mucosal and serosal surfaces (3 mL volume in each chamber) comprised oxygenated Krebs-Henseleit buffer maintained at 37°C (heating block) under stirred conditions (gas flow manifold). […] Any intestinal segments presenting an initial TEER of lower than 80 Ω.cm^2 were discarded prior to the experiment, likewise any segments whose TEER decreased by more than 10% over the course of the experiment were excluded.
(§2) Thereafter permeability coefficients were determined according to Eq. 4:4 ρ=dM/dt/A^∗C0

[7] = design: method as in PMID 4654354; details: cited from earlier work
[8] = design: method as in PMID 12761811; details: cited from earlier work
Caco-2 cell model = test system: Caco-2 cell model; design: method as in PMID 12761811; details: cited from earlier work
[9] = test system: P-gp (Mdr1a/1b) in mouse intestinal segments
Procedure: as §1, §2

[10] = ATPase, 0 indicates no enzyme turnover

**Q.** Which results are given for `COC(=O)c1ccccc1-c1c2ccc(=N)cc-2oc2cc(N)ccc12.Cl` [Rh-123, rhodamine-123]?
**A.** Mdr1a/1b (+/+) AUC(0-30) [1]: 376 %.min; Mdr1a/1b (+/+) ‘F’ estimate by model fit [95% CI) [1]: 23.5 [19.9 to 27.1]; Mdr1a/1b (-/-) AUC(0-30) [1]: 712 %.min; Mdr1a/1b (-/-) ‘F’ estimate by model fit [95% CI) [1]: 30.6 [27.6 to 33.5]; Group (impact of Mdr1a/1b knockout on IPML absorption) ([1]; categorisation from IPML outcomes): GROUP B; Mdr1a/1b (-/-) % Deposited Dose absorbed ([1]; knockout IPML): 33.2%; Ratio AUCs (-/-) : (+/+) ([1]; mouse): 1.89; Mdr1a/1b (+/+) % Deposited Dose absorbed [1]: 20.7%; Km (mouse Bcrp; [10]): 110 µM; Vmax (mouse Bcrp; [10]): 18.5 µM/min; interaction with Bcrp (ATP turnover) (mouse Bcrp; mouse Bcrp membrane model): showed evidence of interactions with Bcrp; LogK^IAM [2]: 1.30; MLV Partitioning [3]: 0.82; t^1/2 for the initial decline of lung clearance, KO (P-gp (Mdr1a/1b)): 107 min; t^1/2 for the initial decline of lung clearance, WT (P-gp (Mdr1a/1b)): 136 min; t^1/2 terminal decline phase of lung clearance (P-gp (Mdr1a/1b)): 500 min; effect of co-administered GF120918 upon pulmonary absorption (P-gp [4]): significantly increased; effect of P-gp inhibition (GF120918) upon pulmonary absorption (P-gp [5]): increased; Km (human MDR1): 2.2 µM; Vmax (human MDR1): 36.3 µM/min; Km (mouse Mdr1a): 6 µM; Vmax (mouse Mdr1a): 35.2 µM/min; Km (mouse Mdr1b): 2.2 µM; Vmax (mouse Mdr1b): 29.7 µM/min; Mdr1a/1b (−/−) Permeability coefficient ([6]; P-gp knockout intestinal segments, mucosal to serosal, 50 μM, 180 min): 22.55 ± 2.24 cm/s (x10^−6); Ratio Permeability (−/−): (+/+) ([6]; intestinal Papp KO:WT): 2.49; Mdr1a/1b (+/+) Permeability coefficient ([6]; wild-type intestinal segments, mucosal to serosal, 50 μM, 180 min): 9.06 ± 1.81 cm/s (x10^−6)

**Q.** With inulin as the compound, how does the “absorbed from the lung” value [7] read?
**A.** 17 % of administered dose

**Q.** And the “absorbed from the small intestine” value [7]?
**A.** < 2%

**Q.** For `O=C(O)c1cc(=O)c2c(OCC(O)COc3cccc4oc(C(=O)O)cc(=O)c34)cccc2o1` [cromolyn], which “permeability across the lung” value [8] is on record?
**A.** high permeability

**Q.** And the Papp (Caco-2 cell model)?
**A.** < 1 ×10⁻⁶ cm/s

**Q.** With `CCCCc1nc(Cl)c(CO)n1Cc1ccc(-c2ccccc2-c2nn[nH]n2)cc1` [losartan] as the compound, how does the “extent of pulmonary absorption” value ([8]; nebulised solutions, anaesthetised rats, mM concentrations) read?
**A.** 92%

**Q.** And the “t^1/2absorption” value ([8]; nebulised solutions, anaesthetised rats)?
**A.** 5 min

**Q.** For `CC[C@@]1([C@@H]2O[C@@H]([C@H]3O[C@@](O)(CO)[C@H](C)C[C@@H]3C)C[C@@H]2C)CC[C@H]([C@]2(C)CC[C@]3(C[C@H](O)[C@@H](C)[C@@H]([C@@H](C)[C@@H](OC)[C@H](C)C(=O)O)O3)O2)O1` [Monensin, monensin], which “Group (impact of Mdr1a/1b knockout on IPML absorption)” value [1] is on record?
**A.** GROUP A

**Q.** And the “Mdr1a/1b (-/-) AUC(0-30)” value ([1]; knockout IPML, % deposited dose absorbed vs time in perfusate)?
**A.** 722 %.min

**Q.** What about the “Mdr1a/1b (-/-) % Deposited Dose absorbed” value ([1]; knockout IPML) of the same compound?
**A.** 38.9%

**Q.** What about the “Mdr1a/1b (+/+) ‘F’ estimate by model fit [95% CI)” value ([1]; male, mouse) of the same compound?
**A.** 35.8 [28.0 to 43.6]

**Q.** What about the “Mdr1a/1b (-/-) ‘F’ estimate by model fit [95% CI)” value ([1]; male, mouse) of the same compound?
**A.** 33.7 [27.7 to 39.6]

**Q.** And the “Mdr1a/1b (+/+) % Deposited Dose absorbed” value [1]?
**A.** 36.5%

**Q.** What about the Vmax (mouse Bcrp; [10]) of the same compound?
**A.** 0 µM/min

**Q.** What about the “LogK^IAM” value [2] of the same compound?
**A.** 1.32

**Q.** What about the “MLV Partitioning” value [3] of the same compound?
**A.** 0.68

**Q.** And the “Mdr1a/1b (−/−) Permeability coefficient” value [9]?
**A.** 19.06 ± 2.41 cm/s (x10^−6)

**Q.** And the Vmax (mouse Mdr1a)?
**A.** 27.6 µM/min

**Q.** And the Vmax (mouse Mdr1b)?
**A.** 42.3 µM/min
